# Source: ChEMBL document CHEMBL3885881, “DrugMatrix”
# Where “and” joins values, the source holds several entries; their conditions need not be identical. Equal values may be shown once.
# Species: Rattus norvegicus
# Format: toxicity, organism-based, Sprague-Dawley
# Conditions: in vivo, sc, 24 h, route mini-PUMP - SUBCUTANEOUS, time 1 day, vehicle 100 % SALINE; for ALANINE AMINOTRANSFERASE / ALBUMIN / ALKALINE PHOSPHATASE / ASPARTATE AMINOTRANSFERASE / BLOOD UREA NITROGEN / CARBON DIOXIDE / CHLORIDE / CHOLESTEROL / CREATININE / GLUCOSE / LACTATE DEHYDROGENASE / LIPASE / PHOSPHORUS / POTASSIUM / SODIUM / TOTAL BILIRUBIN / TOTAL PROTEIN / URIC ACID / CREATINE PHOSPHOKINASE: tissue Plasma
# [1] = 0 mg/kg, vehicle control, tissue Blood, dose level Control
# [2] = 0 mg/kg, vehicle control, dose level Control
# [3] = […], tissue Blood, dose 0.065 mg/Kg, dose level High
# [4] = […], dose 0.065 mg/Kg, dose level High
# [5] = 0.5 mg/kg, tissue Blood, dose level High
# [6] = […], tissue Blood, dose 0.72 mg/Kg, dose level High
# [7] = […], dose 0.72 mg/Kg, dose level High
# Description: DrugMatrix - Regimen: Single
smiles,measurement,setting,value
C[C@]12CCC(=O)C=C1CC[C@@H]1[C@@H]2[C@@H](O)C[C@]2(C=O)[C@@H](C(=O)CO)CC[C@@H]12 [ALDOSTERONE],ABSOLUTE EOSINOPHIL,[1],26.17 CELLS/uL
same,ABSOLUTE LYMPHOCYTE,[1],10985.83 CELLS/uL
same,ABSOLUTE MONOCYTE,[1],234.5 CELLS/uL
same,ABSOLUTE SEGMENTED NEUTROPHIL,[1],1753.5 CELLS/uL
same,BASOPHIL,[1],0%
same,EOSINOPHIL,[1],0.17%
same,ERYTHROCYTE COUNT,[1],5.64 x10E6/uL
same,HEMATOCRIT,[1],34.52%
same,HEMOGLOBIN,[1],12.68 G/DL
same,LEUKOCYTE COUNT,[1],13 x10E3/uL
same,LYMPHOCYTE,[1],84.5%
same,MEAN CORPUSCULAR HEMOGLOBIN,[1],22.5 pg
same,MEAN CORPUSCULAR HEMOGLOBIN CONCENTRATION,[1],36.78 G/DL
same,MEAN CORPUSCULAR VOLUME,[1],61.18 fL
same,MONOCYTE,[1],1.83%
same,NEUTROPHIL,[1],13.5%
same,NUCLEATED RED BLOOD CELLS,[1],0.17 /100WBC
same,PLATELET COUNT,[1],679.17 x10E3/uL
same,ALANINE AMINOTRANSFERASE,[2],42.67 u/L
same,ALBUMIN,[2],3.77 G/DL
same,ALKALINE PHOSPHATASE,[2],291.17 u/L
same,ASPARTATE AMINOTRANSFERASE,[2],74.5 u/L
same,BLOOD UREA NITROGEN,[2],15.33 mg/dL
same,CARBON DIOXIDE,[2],30 mmol/L
same,CHLORIDE,[2],100.83 MEQ/L
same,CHOLESTEROL,[2],65.33 mg/dL
same,CREATININE,[2],0.15 mg/dL
same,GLUCOSE,[2],179.83 mg/dL
same,LACTATE DEHYDROGENASE,[2],162.67 u/L
same,LIPASE,[2],8.5 u/L
same,PHOSPHORUS,[2],12.2 mg/dL
same,POTASSIUM,[2],5.73 MEQ/L
same,SODIUM,[2],144.7 MEQ/L
same,TOTAL BILIRUBIN,[2],0.15 mg/dL
same,TOTAL PROTEIN,[2],5.87 G/DL
same,URIC ACID,[2],1.93 mg/dL
same,ABSOLUTE EOSINOPHIL,[3],35 CELLS/uL
same,ABSOLUTE LYMPHOCYTE,[3],9989.33 CELLS/uL
same,ABSOLUTE MONOCYTE,[3],255.33 CELLS/uL
same,ABSOLUTE SEGMENTED NEUTROPHIL,[3],2453.67 CELLS/uL
same,BASOPHIL,[3],0%
same,EOSINOPHIL,[3],0.33%
same,ERYTHROCYTE COUNT,[3],5.74 x10E6/uL
same,HEMATOCRIT,[3],34.13%
same,HEMOGLOBIN,[3],12.57 G/DL
same,LEUKOCYTE COUNT,[3],12.73 x10E3/uL
same,LYMPHOCYTE,[3],78.33%
same,MEAN CORPUSCULAR HEMOGLOBIN,[3],21.87 pg
same,MEAN CORPUSCULAR HEMOGLOBIN CONCENTRATION,[3],36.77 G/DL
same,MEAN CORPUSCULAR VOLUME,[3],59.43 fL
same,MONOCYTE,[3],2.33%
same,NEUTROPHIL,[3],19%
same,NUCLEATED RED BLOOD CELLS,[3],0.33 /100WBC
same,PLATELET COUNT,[3],980 x10E3/uL
same,ALANINE AMINOTRANSFERASE,[4],37.33 u/L
same,ALBUMIN,[4],3.87 G/DL
same,ALKALINE PHOSPHATASE,[4],321.67 u/L
same,ASPARTATE AMINOTRANSFERASE,[4],76 u/L
same,BLOOD UREA NITROGEN,[4],11.67 mg/dL
same,CARBON DIOXIDE,[4],27.67 mmol/L
same,CHLORIDE,[4],101.33 MEQ/L
same,CHOLESTEROL,[4],65.33 mg/dL
same,CREATININE,[4],0.14 mg/dL
same,GLUCOSE,[4],206.67 mg/dL
same,LACTATE DEHYDROGENASE,[4],145.67 u/L
same,LIPASE,[4],9 u/L
same,PHOSPHORUS,[4],13.27 mg/dL
same,POTASSIUM,[4],5.08 MEQ/L
same,SODIUM,[4],146.53 MEQ/L
same,TOTAL BILIRUBIN,[4],0.17 mg/dL
same,TOTAL PROTEIN,[4],5.9 G/DL
same,URIC ACID,[4],2.27 mg/dL
CC[C@H](C)[C@H](NC(=O)[C@H](Cc1ccc(O)cc1)NC(=O)[C@@H](NC(=O)[C@H](CCCNC(=N)N)NC(=O)[C@@H](N)CC(=O)O)C(C)C)C(=O)N[C@@H](Cc1cnc[nH]1)C(=O)N1CCC[C@H]1C(=O)N[C@@H](Cc1ccccc1)C(=O)O [ANGIOTENSIN II],ABSOLUTE SEGMENTED NEUTROPHIL,[1],1753.5 CELLS/uL
same,BASOPHIL,[1],0.4% and 0%
same,EOSINOPHIL,[1],0.3% and 0.17%
same,ERYTHROCYTE COUNT,[1],6.25 x10E6/uL and 5.64 x10E6/uL
same,HEMATOCRIT,[1],41.8% and 34.52%
same,HEMOGLOBIN,[1],13.33 G/DL and 12.68 G/DL
same,LEUKOCYTE COUNT,[1],11.55 x10E3/uL and 13 x10E3/uL
same,MEAN CORPUSCULAR HEMOGLOBIN,[1],21.37 pg and 22.5 pg
same,MEAN CORPUSCULAR HEMOGLOBIN CONCENTRATION,[1],31.93 G/DL and 36.78 G/DL
same,MEAN CORPUSCULAR VOLUME,[1],66.93 fL and 61.18 fL
same,MONOCYTE,[1],2.4% and 1.83%
same,NEUTROPHIL,[1],23.4% and 13.5%
same,NUCLEATED RED BLOOD CELLS,[1],0.17 /100WBC
same,PLATELET COUNT,[1],1265.33 x10E3/uL and 679.17 x10E3/uL
same,ALBUMIN,[2],3.63 G/DL and 3.77 G/DL
same,ALKALINE PHOSPHATASE,[2],385.33 u/L and 291.17 u/L
same,ASPARTATE AMINOTRANSFERASE,[2],79.33 u/L and 74.5 u/L
same,BLOOD UREA NITROGEN,[2],13.33 mg/dL and 15.33 mg/dL
same,CARBON DIOXIDE,[2],40.67 mmol/L and 30 mmol/L
same,CHOLESTEROL,[2],86.33 mg/dL and 65.33 mg/dL
same,CREATINE PHOSPHOKINASE,[2],190.33 u/L
same,CREATININE,[2],0.4 mg/dL and 0.15 mg/dL
same,GLUCOSE,[2],165.67 mg/dL and 179.83 mg/dL
same,LACTATE DEHYDROGENASE,[2],103.33 u/L and 162.67 u/L
same,PHOSPHORUS,[2],11.7 mg/dL and 12.2 mg/dL
same,POTASSIUM,[2],5.5 MEQ/L and 5.73 MEQ/L
same,SODIUM,[2],145 MEQ/L and 144.7 MEQ/L
same,TOTAL BILIRUBIN,[2],0.27 mg/dL and 0.15 mg/dL
same,URIC ACID,[2],1 mg/dL and 1.93 mg/dL
same,ABSOLUTE BASOPHIL,[5],13.3 cells/µL
same,ABSOLUTE EOSINOPHIL,[5],46.7 cells/µL
same,ABSOLUTE LYMPHOCYTE,[5],5400 cells/µL
same,ABSOLUTE MONOCYTE,[5],230 cells/µL
same,BASOPHIL,[5],0.13%
same,EOSINOPHIL,[5],0.6%
same,ERYTHROCYTE COUNT,[5],6.26 x10E6/uL
same,HEMATOCRIT,[5],42.23%
same,HEMOGLOBIN,[5],13.53 G/DL
same,LEUKOCYTE COUNT,[5],7.88 x10E3/uL
same,MEAN CORPUSCULAR HEMOGLOBIN,[5],21.63 pg
same,MEAN CORPUSCULAR HEMOGLOBIN CONCENTRATION,[5],32.03 G/DL
same,MEAN CORPUSCULAR VOLUME,[5],67.47 fL
same,MONOCYTE,[5],2.8%
same,NEUTROPHIL,[5],26.93%
same,PLATELET COUNT,[5],1308.33 x10E3/uL
same,ALBUMIN,"0.5 mg/kg, dose level High",3.93 G/DL
same,ALKALINE PHOSPHATASE,"0.5 mg/kg, dose level High",341.33 u/L
same,ASPARTATE AMINOTRANSFERASE,"0.5 mg/kg, dose level High",74 u/L
same,BLOOD UREA NITROGEN,"0.5 mg/kg, dose level High",14 mg/dL
same,CARBON DIOXIDE,"0.5 mg/kg, dose level High",42.67 mmol/L
same,CHOLESTEROL,"0.5 mg/kg, dose level High",106.33 mg/dL
same,CREATINE PHOSPHOKINASE,"0.5 mg/kg, dose level High",299.33 u/L
same,CREATININE,"0.5 mg/kg, dose level High",0.5 mg/dL
same,GLUCOSE,"0.5 mg/kg, dose level High",169.33 mg/dL
same,LACTATE DEHYDROGENASE,"0.5 mg/kg, dose level High",65.33 u/L
same,PHOSPHORUS,"0.5 mg/kg, dose level High",11.73 mg/dL
same,POTASSIUM,"0.5 mg/kg, dose level High",5.2 MEQ/L
same,SODIUM,"0.5 mg/kg, dose level High",146.33 MEQ/L
same,TOTAL BILIRUBIN,"0.5 mg/kg, dose level High",0.2 mg/dL
same,URIC ACID,"0.5 mg/kg, dose level High",0.93 mg/dL
same,ABSOLUTE EOSINOPHIL,[6],30.33 CELLS/uL
same,ABSOLUTE LYMPHOCYTE,[6],10495 CELLS/uL
same,ABSOLUTE MONOCYTE,[6],212 CELLS/uL
same,ABSOLUTE SEGMENTED NEUTROPHIL,[6],2262.67 CELLS/uL
same,BASOPHIL,[6],0%
same,EOSINOPHIL,[6],0.33%
same,ERYTHROCYTE COUNT,[6],6.56 x10E6/uL
same,HEMATOCRIT,[6],38.97%
same,HEMOGLOBIN,[6],14.37 G/DL
same,LEUKOCYTE COUNT,[6],13 x10E3/uL
same,MEAN CORPUSCULAR HEMOGLOBIN,[6],21.9 pg
same,MEAN CORPUSCULAR HEMOGLOBIN CONCENTRATION,[6],36.87 G/DL
same,MEAN CORPUSCULAR VOLUME,[6],59.37 fL
same,MONOCYTE,[6],1.67%
same,NEUTROPHIL,[6],17.67%
same,NUCLEATED RED BLOOD CELLS,[6],0.33 /100WBC
same,PLATELET COUNT,[6],1167.67 x10E3/uL
same,ALBUMIN,[7],4 G/DL
same,ALKALINE PHOSPHATASE,[7],462 u/L
same,ASPARTATE AMINOTRANSFERASE,[7],98.67 u/L
same,BLOOD UREA NITROGEN,[7],19 mg/dL
same,CARBON DIOXIDE,[7],32 mmol/L
same,CHOLESTEROL,[7],87 mg/dL
same,CREATININE,[7],0.14 mg/dL
same,GLUCOSE,[7],171 mg/dL
same,LACTATE DEHYDROGENASE,[7],143.33 u/L
same,PHOSPHORUS,[7],13.13 mg/dL
same,POTASSIUM,[7],6.48 MEQ/L
same,SODIUM,[7],141.6 MEQ/L
same,TOTAL BILIRUBIN,[7],0.2 mg/dL
same,URIC ACID,[7],2.37 mg/dL
